Experimental data from patent publication US12133922B2, “Abuse resistant capsule” (R.P. Scherer Technologies, LLC, priority 2013, dated 2024).
Structures can show the parent of a compound that is named as a salt.

Assay: aqueous, methanol and acidic extraction of capsule fill, assay by HPLC
Assay type: physicochemical
Description: In order to ascertain the resistance to aqueous and acidic extraction, the fill mass of 10 capsules was mixed with different amounts of purified water (5 mL/caps. and 10 mL/caps.) and extracted for 1, 3 or 5 days. Further, the fill mass of 10 capsules was mixed with 20 mL of methanol and was extracted for 3 days.
The fill mass of 10 capsules of Formulation A or Formulation B was mixed with 20 mL of 0.1 N hydrochloric acid and extracted for one day. Comparison solutions of Pseudoephedrine HCl (labeled as API in the table below) were prepared. After an extraction of the formulation/solvent mixture, the mixtures were centrifugated and the assay of pseudoephedrine HCl was analyzed by HPLC. Even after centrifugation the solutions were turbid. The results were normalized to a capsule containing 1164.8 mg of pseudoephedrine HCl.

CN[C@@H](C)[C@@H](O)c1ccccc1 [API, Pseudoephedrine HCl]
Calculated Mass of recoverable Pseudoephedrine HCl (comparison solution, 1 day, 50 mL water): 1026.0 mg | Calculated Mass of recoverable Pseudoephedrine HCl (comparison solution, 3 days, 50 mL water): 1243.7 mg | Calculated Mass of recoverable Pseudoephedrine HCl (comparison solution, 5 days, 50 mL water): 1227.7 mg | Calculated Mass of recoverable Pseudoephedrine HCl (extraction 1 day, 20 mL HCl 0.1 mol/L with neutralisation): 1197.3 mg | Calculated Mass of recoverable Pseudoephedrine HCl (extraction 1 day, 20 mL HCl 0.1 mol/L without neutralisation): 1054.7 mg | Calculated Mass of recoverable Pseudoephedrine HCl (extraction 3 days, 20 mL methanol): 1165.6 mg
